Reference: PubChem BioAssay AID1963436 (Molecular Pharmacology Branch, DTP, NCI, 2024)
“And” between values parts separate entries of the source, which are not always exact repeats. Identical values can stand only once.

System: OVCAR-5 complex spheroid (HUVEC/MSC), viability % T/C
Experiment: Anticancer human tumor OVCAR-5 cell line growth inhibition [Asc];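 also: spheroids exposed to agents for 7 days before readout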;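 as to viability, T/C: 100% = DMSO vehicle-treated wells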
Details: for viability, T/C: stronger effect = lower value
Method in brief: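 Complex solid-tumor spheroids incorporating human endothelial and mesenchymal stem cells received single agents or combinations over half-log dilution ranges anchored to clinical Cmax.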

[1] = compound alone, run of 09/27/2022

Compound: CCN1C(C(=O)NC23CCC(C(=O)O)(CC2)CC3)C(c2cccc(Cl)c2F)C2(C(=O)Nc3cc(Cl)ccc32)C12CCCCC2 (centres undefined)
- viability, T/C (compound 0.00949 µM): 101% and 109%
- viability, T/C (compound 0.03 µM): 97.1% [middle of 15 runs]
- viability, T/C (compound 0.0949 µM): 93.8% [middle of 15 runs]
- viability, T/C (compound 0.3 µM): 95.7% [middle of 15 runs]
- viability, T/C (compound 0.949 µM): 99.8% [middle of 15 runs]
- viability, T/C (compound 3 µM): 103% [middle of 15 runs]
- IC50 [1]: > 3000 nM
- IC50 (curve of compound): > 3000 nM

Compound: COc1c(OCCCN2CCOCC2)ccc2c3n(c(=NC(=O)c4cnc(N)nc4)nc12)CCN3 + CCN1C(C(=O)NC23CCC(C(=O)O)(CC2)CC3)C(c2cccc(Cl)c2F)C2(C(=O)Nc3cc(Cl)ccc32)C12CCCCC2
- IC50 (curve of first compound, second compound 0.03 µM): 36.4 nM
- IC50 (curve of first compound, second compound 0.0949 µM): 29.5 nM
- IC50 (curve of first compound, second compound 0.3 µM): 44.4 nM
- IC50 (curve of first compound, second compound 0.949 µM): 38.1 nM
- IC50 (curve of first compound, second compound 3 µM): 34.1 nM
- viability, T/C (second compound 0.03 µM, first compound 0.00316 µM): 82.4%
- viability, T/C (second compound 0.03 µM, first compound 0.01 µM): 79.6%
- viability, T/C (second compound 0.03 µM, first compound 0.0316 µM): 49.8%
- viability, T/C (second compound 0.03 µM, first compound 0.1 µM): 29.9%
- viability, T/C (second compound 0.03 µM, first compound 0.316 µM): 20%
- viability, T/C (second compound 0.03 µM, first compound 1 µM): 11.9%
- viability, T/C (second compound 0.0949 µM, first compound 0.00316 µM): 91.6%
- viability, T/C (second compound 0.0949 µM, first compound 0.01 µM): 75.8%
- viability, T/C (second compound 0.0949 µM, first compound 0.0316 µM): 46.3%
- viability, T/C (second compound 0.0949 µM, first compound 0.1 µM): 28.1%
- viability, T/C (second compound 0.0949 µM, first compound 0.316 µM): 17.8%
- viability, T/C (second compound 0.0949 µM, first compound 1 µM): 9.62%
- viability, T/C (second compound 0.3 µM, first compound 0.00316 µM): 87.8%
- viability, T/C (second compound 0.3 µM, first compound 0.01 µM): 82.3%
- viability, T/C (second compound 0.3 µM, first compound 0.0316 µM): 56.6%
- viability, T/C (second compound 0.3 µM, first compound 0.1 µM): 31.1%
- viability, T/C (second compound 0.3 µM, first compound 0.316 µM): 17.8%
- viability, T/C (second compound 0.3 µM, first compound 1 µM): 10.5%
- viability, T/C (second compound 0.949 µM, first compound 0.00316 µM): 79.4%
- viability, T/C (second compound 0.949 µM, first compound 0.01 µM): 75.1%
- viability, T/C (second compound 0.949 µM, first compound 0.0316 µM): 54.8%
- viability, T/C (second compound 0.949 µM, first compound 0.1 µM): 24.8%
- viability, T/C (second compound 0.949 µM, first compound 0.316 µM): 17.3%
- viability, T/C (second compound 0.949 µM, first compound 1 µM): 8.43%
- viability, T/C (second compound 3 µM, first compound 0.00316 µM): 89.7%
- viability, T/C (second compound 3 µM, first compound 0.01 µM): 83.9%
- viability, T/C (second compound 3 µM, first compound 0.0316 µM): 51%
- viability, T/C (second compound 3 µM, first compound 0.1 µM): 22%
- viability, T/C (second compound 3 µM, first compound 0.316 µM): 15.2%
- viability, T/C (second compound 3 µM, first compound 1 µM): 8.71%

Compound: Cc1c(S(C)(=O)=O)c(-c2cc(F)cc(N3CCN(c4ccc(NS(=O)(=O)c5ccc(NC(CCN6CCC(C(=O)OCCCP(=O)(O)O)CC6)CSc6ccccc6)c(S(=O)(=O)C(F)(F)F)c5)cc4)CC3)c2)c(-c2ccc(Cl)cc2)n1C(C)C (centres undefined)
- viability, T/C (compound 0.316 µM): 92.2% [middle of 14 runs]
- viability, T/C (compound 1 µM): 90.3% [middle of 14 runs]
- viability, T/C (compound 3.16 µM): 88.8% [middle of 13 runs]
- IC50 [1]: > 10000 nM

Compound: C=C(F)C(=O)N1CCN(c2nc(OCC3CCCN3C)nc3c2CCN(c2cccc4cccc(Cl)c24)C3)CC1CC#N (centres undefined)
- viability, T/C (compound 0.0316 µM): 102% and 108% and 105%
- viability, T/C (compound 0.1 µM): 100% and 107% and 97.9%
- viability, T/C (compound 0.316 µM): 83.5% and 91.4% and 89.7%
- viability, T/C (compound 1 µM): 54.5% and 60.8% and 67.8%
- viability, T/C (compound 3.16 µM): 10.6% and 8.67% and 19.2%
- viability, T/C (compound 10 µM): 0.23% and 0.22% and 0.3%
- IC50 (curve of compound): 1050 nM and 1210 nM and 1490 nM
